Measurements from PubChem BioAssay (NCI).
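Abbreviation: GI50, concentration required for 50% inhibition of growth. TGI marks complete inhibition of growth.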

What was measured:
Assay in all cases: inhibition of tumour cell growth, NCI panel, 384-well format
786-0 renal = tested on: 786-0 renal
A498 renal = tested on: A498 renal
A549 NSCLC = tested on: A549 NSCLC
ACHN renal = tested on: ACHN renal
BT-549 breast = tested on: BT-549 breast
CAKI-1 renal = tested on: CAKI-1 renal
COLO 205 colon = tested on: COLO 205 colon
DU-145 prostate = tested on: DU-145 prostate
HCC-2998 colon = tested on: HCC-2998 colon
HCT-116 colon = tested on: HCT-116 colon
HCT-15 colon = tested on: HCT-15 colon
HL-60(TB) leukemia = tested on: HL-60(TB) leukemia
HOP-62 NSCLC = tested on: HOP-62 NSCLC
HOP-92 NSCLC = tested on: HOP-92 NSCLC
HT29 colon = tested on: HT29 colon
IGROV1 ovarian = tested on: IGROV1 ovarian
KM12 colon = tested on: KM12 colon
LOX IMVI melanoma = tested on: LOX IMVI melanoma
M14 melanoma = tested on: M14 melanoma
MALME-3M melanoma = tested on: MALME-3M melanoma
MCF7 breast = tested on: MCF7 breast
MDA-MB-231 breast = tested on: MDA-MB-231 breast
MDA-MB-435 melanoma = tested on: MDA-MB-435 melanoma
MDA-MB-468 breast = tested on: MDA-MB-468 breast
NCI-H226 lung = tested on: NCI-H226 lung
NCI-H23 lung = tested on: NCI-H23 lung
NCI-H322M lung = tested on: NCI-H322M lung

Compound `Cc1cccc2c1NC(=O)[C@@H](NC(=O)[C@H](CCC(F)(F)F)[C@H](CCC(F)(F)F)C(N)=O)N=C2c1cccc(F)c1` has a GI50 (786-0 renal) of 22.2 µM, a TGI (786-0 renal) greater than 100 µM and a GI50 (A498 renal) of 7.76 µM. It also gave a TGI (A498 renal) of 51.6 µM, a GI50 (A549 NSCLC) of 31.6 µM and a TGI (A549 NSCLC) greater than 100 µM. It also gave a GI50 (ACHN renal) of 17.9 µM, a TGI (ACHN renal) of 64.5 µM and a GI50 (BT-549 breast) of 14.7 µM. The TGI (BT-549 breast) was 48.3 µM, the GI50 (CAKI-1 renal) was 13.3 µM and the TGI (CAKI-1 renal) was 26.8 µM. It also gave a GI50 (COLO 205 colon) of 37.5 µM, a TGI (COLO 205 colon) greater than 100 µM and a GI50 (DU-145 prostate) of 24.6 µM. For the same compound, the TGI (DU-145 prostate) was greater than 100 µM, the GI50 (HCC-2998 colon) was 25.9 µM and the TGI (HCC-2998 colon) was greater than 100 µM. The GI50 (HCT-116 colon) was 20.1 µM, the TGI (HCT-116 colon) was greater than 100 µM and the GI50 (HCT-15 colon) was greater than 100 µM. It also gave a TGI (HCT-15 colon) greater than 100 µM, a GI50 (HL-60(TB) leukemia) of 1.61 µM and a TGI (HL-60(TB) leukemia) of 3.05 µM. For the same compound, the GI50 (HOP-62 NSCLC) was 20.4 µM, the TGI (HOP-62 NSCLC) was 49.6 µM and the GI50 (HOP-92 NSCLC) was 16.2 µM. For the same compound, the TGI (HOP-92 NSCLC) was 49.6 µM, the GI50 (HT29 colon) was greater than 100 µM and the TGI (HT29 colon) was greater than 100 µM. For the same compound, the GI50 (IGROV1 ovarian) was 34.1 µM, the TGI (IGROV1 ovarian) was greater than 100 µM and the GI50 (KM12 colon) was greater than 100 µM. It also gave a TGI (KM12 colon) greater than 100 µM, a GI50 (LOX IMVI melanoma) greater than 100 µM and a TGI (LOX IMVI melanoma) greater than 100 µM. The GI50 (M14 melanoma) was 19.7 µM, the TGI (M14 melanoma) was greater than 100 µM and the GI50 (MALME-3M melanoma) was 19.2 µM. For the same compound, the TGI (MALME-3M melanoma) was 69.7 µM, the GI50 (MCF7 breast) was 12 µM and the TGI (MCF7 breast) was greater than 100 µM. It also gave a GI50 (MDA-MB-231 breast) of 15.7 µM, a TGI (MDA-MB-231 breast) of 92.6 µM and a GI50 (MDA-MB-435 melanoma) greater than 100 µM. The TGI (MDA-MB-435 melanoma) was greater than 100 µM, the GI50 (MDA-MB-468 breast) was 13.9 µM and the TGI (MDA-MB-468 breast) was 92 µM. It also gave a GI50 (NCI-H226 lung) of 17.7 µM, a TGI (NCI-H226 lung) of 75.1 µM and a GI50 (NCI-H23 lung) of 26.8 µM. It also gave a TGI (NCI-H23 lung) of 82 µM and a GI50 (NCI-H322M lung) of 46.8 µM.
